# Source: patent publication US8691861B2, “Prodrugs of inhibitors of plasma kallikrein” (ActiveSite Pharmaceuticals, Inc., priority 2011, dated 2014)
# Non-standard residues stand in square brackets, D forms with d. *: point of attachment. CH2Cl = ClC*
# B1: C1-INH: the major endogenous inhibitor of PK (protein, UniProt P05155 23-500, looked up)
# Plasma protease C1 inhibitor: NPNATSSSSQDPESLQDRGEGKVATTVISKMLFVEPILEVSSLPTTNSTTNSATKITANTTDEPTTQPTTEPTTQPTIQPTQPTTQLPTDSPTQPTTGSFCPGPVTLCSDLESHSTEAVLGDALVDFSLKLYHAFSAMKKVETNMAFSPFSIASLLTQVLLGAGENTKTNLESILSYPKDFTCVHQALKGFTTKGVTSVSQIFHSPDLAIRDTFVNASRTLYSSSPRVLSNNSDANLELINTWVAKNTNNKISRLLDSLPSDTRLVLLNAIYLSAKWKTTFDPKKTRMEPFHFKNSVIKVPMMNSKKYPVAHFIDQTLKAKVGQLQLSHNLSLVILVPQNLKHRLEDMEQALSPSVFKAIMEKLEMSKFQPTLLTLPRIKVTTSQDMLSIMEKLEFFDFSYDLNLCGLTEDPDLQVSAMQHQTVLELTETGVEAAAASAISVARTLLVFEVQQPFLFVLWDQQHKFPVFMGRVYDPRA
# Key:
# [1] = Conversion of prodrug in vivo: plasma levels of the active plasma kallikrein inhibitor after oral dosing of the prodrug; set-up: species or system Sprague-Dawley rats; details: rats, 25 mg/kg oral in PEG400
# Description: Young male Sprague-Dawley rats were orally dosed at 25 mg/kg with the prodrug 1-(4-fluorophenyl)-N-[[4-(N′-hydroxycarbamimidoyl)phenyl]methyl]-2,5-dimethyl-pyrrole-3-carboxamide dissolved in PEG400. Blood was removed at various time intervals via an arterial catheter into a citrated collection tube, and plasma generated by centrifugation. The concentration of the active plasma kallikrein inhibitor N-[(4-carbamimidoylphenyl)methyl]-1-(4-fluorophenyl)-2,5-dimethyl-pyrrole-3-carboxamide in the plasma samples were determined using LC/MS/MS.
# [2] = rat model of ischemic stroke; cited from earlier work
# [3] = model of hemorrhagic stroke; cited from earlier work
# [4] = angiotensin-II-induced; cited from earlier work
# [5] = diabetic animals; cited from earlier work
# [6] = rat models of arthritis; cited from earlier work
# [7] = cited from earlier work
# [8] = LPS or bacterial induced sepsis in animals; cited from earlier work
# [9] = mouse model of middle cerebral artery occlusion; cited from earlier work
# [10] = cited from earlier work; remark: listed apart in the source
molecule,measurement,setting,value
"Cc1cc(C(=O)NCc2ccc(/C(N)=N/O)cc2)c(C)n1-c1ccc(F)cc1 [1-(4-fluorophenyl)-N-[[4-(N′-hydroxycarbamimidoyl)phenyl]methyl]-2,5-dimethyl-pyrrole-3-carboxamide]",absorption from the gastrointestinal tract following oral dosing,[1],absorbed from the gastrointestinal tract
same,conversion in vivo into the active compound,[1],effectively converted in vivo
N=C(N)c1ccc(CNC(=O)c2cnn(Cc3ccccc3)c2)cc1 [ASP-440],cerebrovascular edema,[2],reduce
same,infarction volume,[2],reduce
same,expansion of intracerebral hemorrhage,[3],reduce
same,elevated systolic blood pressure,[4],reduce
same,plasma leakage into the retina,[5],inhibits
Cl.NCC1CCC(C(=O)N[C@@H](Cc2ccccc2)C(=O)Nc2ccc(CC(=O)O)cc2)CC1 (stereo partly shown) [PKSI-527],joint swelling,[6],reduce
NC(N)=NCCC[C@@H](N)C(=O)N[C@@H](CCCN=C(N)N)C(=O)N1CCC[C@H]1C(=O)N1C[C@H](O)C[C@H]1C(=O)NCC(=O)N[C@@H](Cc1cccs1)C(=O)N[C@@H](CO)C(=O)N1Cc2ccccc2C[C@@H]1C(=O)N1[C@H](C(=O)N[C@@H](CCCN=C(N)N)C(=O)O)C[C@@H]2CCCC[C@@H]21 [icatibant],effectiveness in treating HAE,[7],effective
H-[dP]-Phe-Arg-CH2Cl,lesions,[8],reduce
B1,infarct size,[9],reduced
same,lesions,[8],reduce
same,clinical outcome in sepsis patients,[10],Clinical improvement
